Consider two molecules from ChEMBL document CHEMBL5678818, “Discovery of potent SOS1 inhibitors that block RAS activation via disruption of the RAS-SOS1 interaction” (Proc Natl Acad Sci U S A, 2019).

Structures are written as SMILES.

Assay [1] concerns the target Ribosomal protein S6 kinase alpha-6 (Homo sapiens) (UniProt Q9UK32). Description: Inhibition of N-terminal RSK4 […] domain 1 (unknown origin) assessed as residual activity at 1000 nM by KINOMEscan analysis relative to control.
Assay [2] addresses T1, Mitogen-activated protein kinase kinase kinase 6 (Homo sapiens) (UniProt O95382).
T1 sequence (whole entry): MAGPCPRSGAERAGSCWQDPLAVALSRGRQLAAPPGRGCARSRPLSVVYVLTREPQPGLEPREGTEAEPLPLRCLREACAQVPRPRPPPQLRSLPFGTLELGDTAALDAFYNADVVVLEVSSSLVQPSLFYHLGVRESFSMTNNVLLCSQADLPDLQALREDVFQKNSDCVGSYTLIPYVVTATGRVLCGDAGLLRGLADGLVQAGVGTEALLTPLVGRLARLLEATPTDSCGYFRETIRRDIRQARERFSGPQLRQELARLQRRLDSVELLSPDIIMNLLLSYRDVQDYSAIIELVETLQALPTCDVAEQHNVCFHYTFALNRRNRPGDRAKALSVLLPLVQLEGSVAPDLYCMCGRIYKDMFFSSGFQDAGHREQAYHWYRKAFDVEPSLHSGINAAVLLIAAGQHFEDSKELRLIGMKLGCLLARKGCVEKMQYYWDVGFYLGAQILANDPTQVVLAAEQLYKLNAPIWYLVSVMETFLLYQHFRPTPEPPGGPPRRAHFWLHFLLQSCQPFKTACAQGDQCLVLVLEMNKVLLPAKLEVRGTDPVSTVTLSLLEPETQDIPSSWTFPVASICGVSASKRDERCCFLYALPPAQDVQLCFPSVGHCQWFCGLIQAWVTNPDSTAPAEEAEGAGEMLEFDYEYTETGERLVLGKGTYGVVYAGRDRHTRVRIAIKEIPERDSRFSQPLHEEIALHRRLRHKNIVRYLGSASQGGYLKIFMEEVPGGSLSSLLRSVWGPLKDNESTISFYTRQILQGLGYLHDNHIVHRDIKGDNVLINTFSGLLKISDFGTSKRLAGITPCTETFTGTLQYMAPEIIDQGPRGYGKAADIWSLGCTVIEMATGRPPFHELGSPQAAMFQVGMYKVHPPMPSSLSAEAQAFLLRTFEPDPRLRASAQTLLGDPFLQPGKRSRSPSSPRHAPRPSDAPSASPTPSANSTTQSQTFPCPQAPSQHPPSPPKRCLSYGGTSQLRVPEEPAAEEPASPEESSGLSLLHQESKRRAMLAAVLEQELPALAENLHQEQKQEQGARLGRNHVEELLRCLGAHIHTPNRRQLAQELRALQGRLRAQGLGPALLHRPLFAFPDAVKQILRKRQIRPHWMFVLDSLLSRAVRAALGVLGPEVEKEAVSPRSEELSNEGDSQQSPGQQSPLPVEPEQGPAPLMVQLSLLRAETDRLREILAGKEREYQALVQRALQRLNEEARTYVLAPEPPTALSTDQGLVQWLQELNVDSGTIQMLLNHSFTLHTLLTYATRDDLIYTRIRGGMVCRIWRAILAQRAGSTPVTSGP
Briefly: Inhibition of ASK2 (unknown origin) assessed as residual activity at 1000 nM by KINOMEscan analysis relative to control.

Assay [3] has as its target Dual specificity mitogen-activated protein kinase kinase 1 (Homo sapiens) (UniProt Q02750). Description: Inhibition of MEK1 (unknown origin) assessed as residual activity at 1000 nM by KINOMEscan analysis relative to control.
Assay [4] has as its target Casein kinase II subunit alpha' (Homo sapiens) (UniProt P19784). Briefly: Inhibition of CSNK2A2 (unknown origin) assessed as residual activity at 1000 nM by KINOMEscan analysis relative to control.
In assay [5] the target is Serine/threonine-protein kinase Nek7 (Homo sapiens) (UniProt Q8TDX7). Briefly: Inhibition of NEK7 (unknown origin) assessed as residual activity at 1000 nM by KINOMEscan analysis relative to control.
The target of assay [6] is SRSF protein kinase 3 (Homo sapiens) (UniProt Q9UPE1). Description: Inhibition of SRPK3 (unknown origin) assessed as residual activity at 1000 nM by KINOMEscan analysis relative to control.
Assay [7] has as its system Proto-oncogene tyrosine-protein kinase receptor Ret (Homo sapiens), P07949 [V804M]. Briefly: Inhibition of RET V804M mutant (unknown origin) assessed as residual activity at 1000 nM by KINOMEscan analysis relative to control.
The target in assay [8] is T2, Ankyrin repeat and protein kinase domain-containing protein 1 (Homo sapiens) (UniProt Q8NFD2).
T2 sequence (whole entry): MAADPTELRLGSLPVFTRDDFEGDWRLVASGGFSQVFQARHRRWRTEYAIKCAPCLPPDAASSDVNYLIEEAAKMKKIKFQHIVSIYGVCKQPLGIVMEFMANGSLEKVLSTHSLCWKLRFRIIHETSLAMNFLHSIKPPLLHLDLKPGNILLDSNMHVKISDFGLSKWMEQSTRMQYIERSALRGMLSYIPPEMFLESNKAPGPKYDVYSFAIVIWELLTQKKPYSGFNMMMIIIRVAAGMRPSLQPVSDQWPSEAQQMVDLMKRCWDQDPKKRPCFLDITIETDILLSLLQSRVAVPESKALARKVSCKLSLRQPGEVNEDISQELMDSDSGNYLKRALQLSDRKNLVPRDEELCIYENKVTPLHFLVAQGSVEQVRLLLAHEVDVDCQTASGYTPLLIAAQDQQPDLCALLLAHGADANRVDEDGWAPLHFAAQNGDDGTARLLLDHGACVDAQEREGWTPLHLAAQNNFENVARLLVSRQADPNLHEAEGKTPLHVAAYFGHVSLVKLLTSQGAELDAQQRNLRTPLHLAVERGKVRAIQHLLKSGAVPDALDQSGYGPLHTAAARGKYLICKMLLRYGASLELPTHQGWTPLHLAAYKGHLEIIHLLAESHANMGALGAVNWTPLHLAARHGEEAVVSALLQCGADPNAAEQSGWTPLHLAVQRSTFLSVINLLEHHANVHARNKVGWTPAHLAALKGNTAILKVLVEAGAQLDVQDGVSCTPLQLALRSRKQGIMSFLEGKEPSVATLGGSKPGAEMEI
Description: Inhibition of ANKK1 (unknown origin) assessed as residual activity at 1000 nM by KINOMEscan analysis relative to control.

SRSF protein kinase 3 (Homo sapiens), sequence (Q9UPE1 whole entry, looked up): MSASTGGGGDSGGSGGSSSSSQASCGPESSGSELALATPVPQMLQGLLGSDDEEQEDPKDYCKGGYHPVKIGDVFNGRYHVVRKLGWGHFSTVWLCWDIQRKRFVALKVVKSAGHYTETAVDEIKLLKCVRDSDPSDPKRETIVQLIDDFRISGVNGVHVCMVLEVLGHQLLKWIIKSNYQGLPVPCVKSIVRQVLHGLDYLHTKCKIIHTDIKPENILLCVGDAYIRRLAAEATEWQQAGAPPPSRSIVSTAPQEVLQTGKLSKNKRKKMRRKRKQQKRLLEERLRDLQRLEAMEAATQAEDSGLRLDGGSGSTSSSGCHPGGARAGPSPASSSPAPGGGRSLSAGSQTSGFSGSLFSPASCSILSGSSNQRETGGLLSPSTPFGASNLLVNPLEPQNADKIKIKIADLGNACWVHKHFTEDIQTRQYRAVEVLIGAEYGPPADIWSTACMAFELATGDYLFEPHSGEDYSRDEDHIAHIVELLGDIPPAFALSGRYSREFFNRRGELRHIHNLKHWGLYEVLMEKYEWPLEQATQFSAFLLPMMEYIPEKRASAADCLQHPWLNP
Dual specificity mitogen-activated protein kinase kinase 1 (Homo sapiens), sequence (Q02750 whole entry): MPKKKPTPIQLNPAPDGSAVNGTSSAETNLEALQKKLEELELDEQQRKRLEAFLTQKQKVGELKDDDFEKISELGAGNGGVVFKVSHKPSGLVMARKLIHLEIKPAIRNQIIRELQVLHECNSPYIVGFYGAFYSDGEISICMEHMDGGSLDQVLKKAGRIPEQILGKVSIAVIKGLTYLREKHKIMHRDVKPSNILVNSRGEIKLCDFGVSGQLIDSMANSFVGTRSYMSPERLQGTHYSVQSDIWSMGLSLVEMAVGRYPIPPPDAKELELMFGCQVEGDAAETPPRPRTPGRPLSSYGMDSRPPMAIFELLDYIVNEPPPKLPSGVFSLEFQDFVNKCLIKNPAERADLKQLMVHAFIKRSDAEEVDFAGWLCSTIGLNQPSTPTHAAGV
Casein kinase II subunit alpha' (Homo sapiens), sequence (P19784 whole entry, looked up): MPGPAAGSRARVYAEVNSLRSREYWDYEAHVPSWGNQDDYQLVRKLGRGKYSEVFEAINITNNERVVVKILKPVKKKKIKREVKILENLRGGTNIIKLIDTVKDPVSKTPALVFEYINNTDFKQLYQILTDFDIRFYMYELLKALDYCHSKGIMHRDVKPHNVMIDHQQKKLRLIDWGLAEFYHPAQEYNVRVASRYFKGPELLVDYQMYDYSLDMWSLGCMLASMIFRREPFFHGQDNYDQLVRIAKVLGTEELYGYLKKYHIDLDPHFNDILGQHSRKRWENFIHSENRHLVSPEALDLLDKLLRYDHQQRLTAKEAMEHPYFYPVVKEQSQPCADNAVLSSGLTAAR
Serine/threonine-protein kinase Nek7 (Homo sapiens), sequence (Q8TDX7 whole entry, looked up): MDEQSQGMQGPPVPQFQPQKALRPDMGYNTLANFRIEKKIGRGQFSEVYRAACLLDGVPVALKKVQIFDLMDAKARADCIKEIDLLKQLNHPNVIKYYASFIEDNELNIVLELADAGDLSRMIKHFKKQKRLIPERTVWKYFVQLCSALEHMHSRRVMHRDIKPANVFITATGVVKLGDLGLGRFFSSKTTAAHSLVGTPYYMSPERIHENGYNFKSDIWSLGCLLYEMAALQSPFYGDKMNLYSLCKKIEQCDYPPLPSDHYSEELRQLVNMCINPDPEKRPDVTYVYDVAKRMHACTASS
Ribosomal protein S6 kinase alpha-6 (Homo sapiens), sequence (Q9UK32 whole entry): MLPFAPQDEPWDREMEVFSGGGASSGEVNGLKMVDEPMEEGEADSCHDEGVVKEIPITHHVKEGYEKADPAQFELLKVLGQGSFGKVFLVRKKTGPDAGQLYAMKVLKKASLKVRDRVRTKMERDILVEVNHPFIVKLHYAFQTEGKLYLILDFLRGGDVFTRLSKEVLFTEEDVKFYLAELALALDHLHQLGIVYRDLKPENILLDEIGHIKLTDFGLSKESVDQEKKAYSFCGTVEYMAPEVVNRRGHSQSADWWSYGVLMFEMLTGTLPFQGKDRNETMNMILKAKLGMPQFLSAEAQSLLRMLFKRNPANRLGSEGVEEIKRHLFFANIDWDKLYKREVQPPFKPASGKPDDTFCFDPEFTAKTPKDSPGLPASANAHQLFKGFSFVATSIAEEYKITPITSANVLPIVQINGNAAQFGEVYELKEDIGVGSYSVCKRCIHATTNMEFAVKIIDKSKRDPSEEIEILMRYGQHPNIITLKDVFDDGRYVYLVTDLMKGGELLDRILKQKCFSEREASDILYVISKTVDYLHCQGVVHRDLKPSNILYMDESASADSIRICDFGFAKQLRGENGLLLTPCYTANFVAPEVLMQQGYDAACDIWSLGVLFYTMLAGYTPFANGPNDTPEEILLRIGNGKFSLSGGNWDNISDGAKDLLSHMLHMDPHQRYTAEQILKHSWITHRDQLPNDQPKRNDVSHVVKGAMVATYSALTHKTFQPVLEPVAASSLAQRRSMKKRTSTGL
Proto-oncogene tyrosine-protein kinase receptor Ret (Homo sapiens), P07949 [V804M], sequence (P07949 whole entry V804M, the tested form may be a part): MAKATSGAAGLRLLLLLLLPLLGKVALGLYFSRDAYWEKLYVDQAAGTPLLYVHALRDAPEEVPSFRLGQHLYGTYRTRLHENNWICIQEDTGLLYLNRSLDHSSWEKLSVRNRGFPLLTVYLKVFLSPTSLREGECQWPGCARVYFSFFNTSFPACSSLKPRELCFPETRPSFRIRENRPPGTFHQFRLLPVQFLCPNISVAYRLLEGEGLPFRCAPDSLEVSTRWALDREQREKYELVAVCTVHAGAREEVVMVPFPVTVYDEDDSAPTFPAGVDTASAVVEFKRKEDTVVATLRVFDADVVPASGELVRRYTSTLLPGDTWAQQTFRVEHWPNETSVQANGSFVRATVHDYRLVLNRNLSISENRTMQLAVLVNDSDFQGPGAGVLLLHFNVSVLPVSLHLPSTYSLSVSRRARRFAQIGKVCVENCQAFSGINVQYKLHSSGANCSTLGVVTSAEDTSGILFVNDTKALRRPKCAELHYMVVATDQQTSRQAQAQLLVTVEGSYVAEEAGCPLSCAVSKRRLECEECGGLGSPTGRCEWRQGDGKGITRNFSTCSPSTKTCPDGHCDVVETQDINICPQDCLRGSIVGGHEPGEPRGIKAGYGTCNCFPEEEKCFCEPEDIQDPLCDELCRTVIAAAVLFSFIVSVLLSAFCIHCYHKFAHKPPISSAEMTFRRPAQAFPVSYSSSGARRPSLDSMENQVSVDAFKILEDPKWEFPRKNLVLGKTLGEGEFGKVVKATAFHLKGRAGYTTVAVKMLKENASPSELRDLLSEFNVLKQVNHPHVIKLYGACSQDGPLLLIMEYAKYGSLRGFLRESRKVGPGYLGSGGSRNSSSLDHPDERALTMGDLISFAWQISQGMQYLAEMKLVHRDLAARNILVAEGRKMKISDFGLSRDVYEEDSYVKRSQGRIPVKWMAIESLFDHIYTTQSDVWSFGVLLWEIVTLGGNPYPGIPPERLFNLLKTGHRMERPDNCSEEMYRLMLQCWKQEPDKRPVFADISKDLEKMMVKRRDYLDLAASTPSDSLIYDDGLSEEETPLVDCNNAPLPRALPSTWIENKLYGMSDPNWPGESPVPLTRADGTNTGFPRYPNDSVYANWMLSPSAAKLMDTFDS

On to `COc1cc2nc(C)nc(N[C@H](C)c3cccc(-c4cn[nH]c4)c3)c2cc1OC`, for which the Activity is 78% in assay [1]; 69% in assay [2]; 85% in assay [3]; 100% in assay [4]; 89% in assay [5]; 93% in assay [6]. Also, the Activity in assay [7] was found to be 92%; in assay [8], 77%.

Turning to `COc1cc2ncnc(N[C@H](C)c3cccc4ccccc34)c2cc1OC`, the Activity turned out to be 100% in assay [1]; 67% in assay [2]; 96% in assay [3]; 90% in assay [4]; 100% in assay [5]; 100% in assay [6]. Also, the Activity stood at 100% in assay [7] and 96% in assay [8].
